Our source for the IC50 values is US20130310379A1, “MODULATORS OF METHYL MODIFYING ENZYMES, COMPOSITIONS AND USES THEREOF” (CONSTELLATION PHARMACEUTICALS, priority 2010, published 2013).

The structures appear in SMILES notation.

The target of the assay is EZH2 (Homo sapiens, UniProt Q15910). Nature of the assay: EZH2 assay: rPRC2 with biotinylated oligonucleosome substrates and 3H SAM, FlashPlate scintillation counting, IC50. In kind it is biochemical. The settings on record: rPRC2, biotinylated oligonucleosome substrates, 3H SAM; read-out: EZH2 IC50. The procedure: Assays were carried out by mixing rPRC2 together with biotinylated oligonucleosome substrates in the presence of the radio-labeled enzyme co-factor, S-adenosyl-L-methionine (^3H SAM) (Perkin Elmer) and monitoring the enzymatically mediated transfer of tritiated methyl groups from ^3H SAM to histone lysine residues. The amount of resulting tritated methylhistone product was measured by first capturing the biotinylated oligonuclesomes in streptavidin (SAV) coated FlashPlates (Perkin Elmer), followed by a wash step to remove un-reacted ^3H SAM, and then counting on a TopCount NXT 384 well plate scintillation counter (Perkin Elmer). The final assay conditions for EZH2 were as follows: 50 mM Tris Buffer pH 8.5, 1 mM DTT, 69 uM Brij-35 detergent, 5.0 mM MgCl2, 0.1 mg/mL BSA, 0.2 uM ^3H SAM, 0.2 uM biotinylated oligonucleosomes, 3.6 uM H3K27me3 peptide and 2 nM EZH2.
Chain of EZH2 (Q15910 whole entry): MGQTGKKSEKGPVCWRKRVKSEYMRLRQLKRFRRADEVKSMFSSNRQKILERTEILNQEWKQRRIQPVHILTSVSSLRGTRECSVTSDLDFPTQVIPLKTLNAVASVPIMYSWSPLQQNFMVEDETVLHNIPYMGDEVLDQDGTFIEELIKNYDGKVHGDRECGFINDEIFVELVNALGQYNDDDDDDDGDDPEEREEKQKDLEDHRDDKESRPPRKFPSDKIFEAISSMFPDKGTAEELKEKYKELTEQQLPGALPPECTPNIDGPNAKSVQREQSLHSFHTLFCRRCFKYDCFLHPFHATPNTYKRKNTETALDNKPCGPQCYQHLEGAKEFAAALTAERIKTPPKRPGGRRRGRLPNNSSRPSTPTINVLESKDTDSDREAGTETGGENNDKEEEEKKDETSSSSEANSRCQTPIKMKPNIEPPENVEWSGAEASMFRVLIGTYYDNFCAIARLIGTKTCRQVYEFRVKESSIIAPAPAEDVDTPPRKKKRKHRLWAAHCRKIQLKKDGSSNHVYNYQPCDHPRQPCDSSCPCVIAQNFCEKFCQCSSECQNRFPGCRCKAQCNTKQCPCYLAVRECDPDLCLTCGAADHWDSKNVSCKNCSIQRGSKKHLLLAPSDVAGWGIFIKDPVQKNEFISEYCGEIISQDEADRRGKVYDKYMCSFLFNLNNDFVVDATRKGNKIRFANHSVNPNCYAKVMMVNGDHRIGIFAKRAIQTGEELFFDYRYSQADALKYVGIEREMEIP
Chain of EZH2 (O75530 whole entry partner): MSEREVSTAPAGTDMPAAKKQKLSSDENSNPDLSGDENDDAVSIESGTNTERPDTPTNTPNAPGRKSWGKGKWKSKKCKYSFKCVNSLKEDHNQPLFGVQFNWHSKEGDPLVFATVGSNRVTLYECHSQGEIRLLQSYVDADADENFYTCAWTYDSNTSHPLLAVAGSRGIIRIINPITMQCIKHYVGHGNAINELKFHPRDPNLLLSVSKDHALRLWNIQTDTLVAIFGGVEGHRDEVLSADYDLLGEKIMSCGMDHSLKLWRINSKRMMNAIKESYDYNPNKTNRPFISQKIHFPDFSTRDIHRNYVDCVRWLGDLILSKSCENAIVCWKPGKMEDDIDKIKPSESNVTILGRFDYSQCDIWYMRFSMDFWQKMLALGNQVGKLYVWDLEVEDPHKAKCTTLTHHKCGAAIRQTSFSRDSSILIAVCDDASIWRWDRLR
Chain of EZH2 (Q15022 whole entry partner): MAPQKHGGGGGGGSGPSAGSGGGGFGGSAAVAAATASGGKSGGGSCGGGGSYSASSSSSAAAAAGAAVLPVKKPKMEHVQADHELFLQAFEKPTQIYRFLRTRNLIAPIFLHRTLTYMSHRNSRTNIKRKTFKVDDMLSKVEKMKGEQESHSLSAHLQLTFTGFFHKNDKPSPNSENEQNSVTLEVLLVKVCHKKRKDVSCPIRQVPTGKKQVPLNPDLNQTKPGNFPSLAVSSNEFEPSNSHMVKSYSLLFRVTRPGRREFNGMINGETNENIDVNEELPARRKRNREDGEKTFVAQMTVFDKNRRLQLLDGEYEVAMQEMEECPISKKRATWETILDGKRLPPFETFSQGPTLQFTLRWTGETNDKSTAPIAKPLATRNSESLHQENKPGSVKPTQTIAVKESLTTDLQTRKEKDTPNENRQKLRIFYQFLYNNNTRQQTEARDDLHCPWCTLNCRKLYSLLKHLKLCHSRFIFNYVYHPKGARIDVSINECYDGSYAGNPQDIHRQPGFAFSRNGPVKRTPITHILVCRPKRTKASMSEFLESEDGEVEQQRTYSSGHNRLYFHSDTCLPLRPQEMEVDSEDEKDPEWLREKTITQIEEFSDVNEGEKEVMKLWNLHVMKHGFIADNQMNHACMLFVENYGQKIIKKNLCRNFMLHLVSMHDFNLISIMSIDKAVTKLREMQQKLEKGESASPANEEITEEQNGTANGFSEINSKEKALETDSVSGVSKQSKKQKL
Compound IC50 measurements were obtained as follows: Compounds were first dissolved in 100% DMSO as 10 mM stock solutions. […] A 12.5 uL volume of the HMT enzyme, H3K27me3 peptide and oligonucleosome substrate in assay buffer was added to each well of the assay plate using a Multidrop Combi (ThermoFisher). Compounds were pre-incubated with the enzyme for 20 min, followed by initiation of the methyltransferase reaction by addition of 12.5 uL of 3H SAM in assay buffer (final volume=25 uL). The final concentrations of compounds ranged from a top default concentration of 80 uM down to 0.16 uM in ten 2-fold dilution steps. Reactions were carried out for 60 minutes and quenched with 20 uL per well of 1.96 mM SAH, 50 mM Tris PH 8.5, 200 mM EDTA. Stopped reactions were transferred to SAV coated Flashplates (Perkin Elmer), incubated for 120 min, washed with a plate washer, and then read on the TopCount NXT (1.0 min/well) to measure the amount of methylhistone product formed during the reaction. The amount of methylhistone product was compared with the amount of product formed in the 0% and 100% inhibition control wells allowing the calculation of % Inhibition in the presence of the individual compounds at various concentrations. IC50's were computed using a 4 parameter fit non-linear curve fitting software package (XLFIT, part of the database package, ActivityBase (IDBS)) where the four parameters were IC50, Hill slope, pre-transitional baseline (0% INH), and post-transitional baseline (100% INH); with the latter two parameters being fixed to zero and 100%, respectively, by default.
For the compound `O=C(NCCc1cccnc1)c1ccc(Oc2ccccc2)cc1` [Compound I-102], the IC50 was more than 80 µM.

Consider `CC1(C)CC(NC(=O)c2ccc(Oc3ncccc3C(N)=O)cc2)CC(C)(C)N1` [Compound I-103, 2-(4-(2,2,6,6-Tetramethylpiperidin-4-ylcarbamoyl)phenoxy)nicotinamide], for which the IC50 is more than 80 µM. For `CC1(C)CC(NC(=O)c2ccc(Nc3ccccc3)nc2)CC(C)(C)N1` [Compound I-104, 6-(Phenylamino)-N-(2,2,6,6-tetramethylpiperidin-4-yl)nicotinamide], the IC50 was more than 80 µM. For `CC1(C)CC(NC(=O)c2cccc(-c3ccccc3)c2)CC(C)(C)N1` [Compound I-105] the value was more than 80 µM.

Regarding `CC1(C)CC(NC(=O)c2ccc(CNc3ccccc3)cc2)CC(C)(C)N1` [Compound I-106, 4-((Phenylamino)methyl)-N-(2,2,6,6-tetramethylpiperidin-4-yl)benzamide], the IC50 is more than 80 µM.

Consider `CC1(C)CC(NC(=O)c2ccc(Nc3ccccc3)cc2)CC(C)(C)N1` [Compound I-107], for which the IC50 is more than 80 µM.

On to `CN(c1ccccc1)c1ccc(C(=O)NC2CC(C)(C)NC(C)(C)C2)cc1` [Compound I-108, 4-(Methyl(phenyl)amino)-N-(2,2,6,6-tetramethylpiperidin-4-yl)benzamide], for which the IC50 is more than 80 µM. For `COc1ccnc(Oc2ccc(C(=O)NC3CC(C)(C)NC(C)(C)C3)cc2)n1` [Compound I-109], the IC50 is more than 80 µM. Take `CC1(C)CC(NC(=O)c2ccc(Oc3ncccc3F)cc2)CC(C)(C)N1` [Compound I-110]: the IC50 was more than 80 µM. For the compound `CC1(C)CC(NC(=O)c2cccc(COc3ccccc3)c2)CC(C)(C)N1` [Compound I-111], the IC50 was more than 80 µM. To `CC1(C)CC(NC(=O)c2ccc(COc3ccncc3)cc2)CC(C)(C)N1` [Compound I-112] belongs more than 80 µM; to `CN1CCC(NC(=O)c2ccc(Oc3ccccc3)cc2)CC1` [Compound I-113], more than 80 µM; to `CN1C2CCC1CC(NC(=O)c1ccc(Oc3ccccc3)cc1)C2` (centres unmarked) [Compound I-114], more than 80 µM.

For the compound `Cc1cc(C)cc(OCc2cccc(C(=O)NC3CC(C)(C)NC(C)(C)C3)c2)c1` [Compound I-115], the IC50 is more than 80 µM. To `O=C(NC1CCN(C(=O)c2ccccc2)CC1)c1ccc(Oc2ccccc2)cc1` [Compound I-116] belongs more than 80 µM; to `COC(=O)c1ccc(COc2ccc(C(=O)NC3CC(C)(C)NC(C)(C)C3)cc2)cc1` [Compound I-117], more than 80 µM.

For the compound `CC(Oc1ccccc1)c1ccc(C(=O)NC2CC(C)(C)NC(C)(C)C2)cc1` (centres unmarked) [Compound I-118, 4-(1-phenoxyethyl)-N-(2,2,6,6-tetramethylpiperidin-4-yl)benzamide], the IC50 was more than 80 µM. Turning to `Cc1cc(C)cc(Oc2ccc(C(=O)NC3CC(C)(C)NC(C)(C)C3)cc2)c1` [Compound I-119], the IC50 was more than 80 µM. Take `COc1ccc(Oc2ccc(C(=O)NC3CC(C)(C)NC(C)(C)C3)cc2)c(C(=O)O)c1` [Compound I-120, 2-(4-(2,2,6,6-tetramethylpiperidin-4-ylcarbamoyl)phenoxy)-5-methoxy benzoic acid]: the IC50 was more than 80 µM.

As to `CNc1cccc(OCc2ccc(C(=O)NC3CC(C)(C)NC(C)(C)C3)cc2)n1` [Compound I-121, 4-(((6-(methylamino)pyridin-2-yl)oxy)methyl)-N-(2,2,6,6-tetramethylpiperidin-4-yl)benzamide], the IC50 was more than 80 µM. For the compound `CC1(C)CC(NC(=O)c2ccc(Oc3ccccc3)cc2O)CC(C)(C)N1` [Compound I-122], the IC50 was more than 80 µM. On to `CC1(C)CC(NC(=O)c2ccc(Oc3ccccc3O)cc2)CC(C)(C)N1` [Compound I-123], for which the IC50 is more than 80 µM. To `Cc1cc(Oc2ccccc2)ccc1C(=O)NC1CC(C)(C)NC(C)(C)C1` [Compound I-124, 2-methyl-4-phenoxy-N-(2,2,6,6-tetramethylpiperidin-4-yl)-benzamide] belongs more than 80 µM; to `CN(C(=O)c1ccc(Oc2ccccc2)cc1)C1CCNCC1` [Compound I-125, N-Methyl-4-phenoxy-N-(piperidin-4-yl)benzamide 2,2,2-trifluoroacetate], more than 80 µM. Regarding `CN(C(=O)c1ccc(COc2cccc(Br)c2)cc1)C1CCNCC1` [Compound I-126], the IC50 is more than 80 µM.

Turning to `CC1(C)CC(NC(=O)c2ccc(Cc3ccccc3)cc2)CC(C)(C)N1` [Compound I-127, 4-Benzyl-N-(2,2,6,6-tetramethylpiperidin-4-yl)benzamide], the IC50 was more than 80 µM. Take `CC1(C)CC(NC(=O)c2ccc(COc3ccnc4ccccc34)cc2)CC(C)(C)N1` [Compound I-128]: the IC50 was more than 80 µM.

On to `CC1(C)CC(NC(=O)c2ccc(COc3cccc(-c4ccc(NCCN5CCOCC5)nc4)c3)cc2)CC(C)(C)N1` [Compound I-129], for which the IC50 was more than 80 µM. Consider `CC1(C)CC(NC(=O)c2cccc(COc3cccc(Br)c3)c2)CC(C)(C)N1` [Compound I-130], for which the IC50 is more than 80 µM.

As to `CCc1cccc(Oc2ccc(C(=O)NC3CC(C)(C)NC(C)(C)C3)cc2)c1` [Compound I-131], the IC50 is more than 80 µM.

On to `CN(C)CCNC(=O)c1ccc(Oc2ccccc2)cc1` [Compound I-132], for which the IC50 is more than 80 µM. `CN(Cc1ccccc1)C(=O)c1ccc(Oc2ccccc2)cc1` [Compound I-133]: the IC50 was more than 80 µM. As to `O=C(NC1CCCCC1)c1ccc(Oc2ccccc2)cc1` [Compound I-134], the IC50 is more than 80 µM.

As for `CC(C)c1ccc(C(=O)NC2CC(C)(C)NC(C)(C)C2)cc1` [Compound I-135], the IC50 is more than 80 µM. On to `CC(C)Oc1ccc(C(=O)NC2CC(C)(C)NC(C)(C)C2)cc1` [Compound I-136], for which the IC50 was more than 80 µM. Turning to `CC1(C)CC(NC(=O)c2ccc3ccccc3c2)CC(C)(C)N1` [Compound I-137], the IC50 is more than 80 µM. On to `CC1(C)CC(NC(=O)c2ccc(C(C)(C)C)cc2)CC(C)(C)N1` [Compound I-138], for which the IC50 is more than 80 µM. Take `CC(C)CNC(=O)c1ccc(Oc2ccccc2)cc1` [Compound I-139]: the IC50 is more than 80 µM. To `CN(C)CCCNC(=O)c1ccc(Oc2ccccc2)cc1` [Compound I-140] belongs more than 80 µM.

`O=C(NCc1ccccc1)c1ccc(Oc2ccccc2)cc1` [Compound I-141]: the IC50 is more than 80 µM. For `CC1(C)CC(NC(=O)Nc2ccc(C(C)(C)C)cc2Br)CC(C)(C)N1` [Compound I-143] the value was more than 80 µM; for `CC1(C)CC(NC(=O)c2ccc(Oc3ccccc3)c(Br)c2)CC(C)(C)N1` [Compound I-144], 5 to 20 µM. With `CC1(C)CC(NC(=O)c2ccc(SC3CCCCC3)cc2)CC(C)(C)N1` [Compound I-145], the IC50 was 20 to 80 µM. For `CC1(C)CC(NC(=O)c2ccc(OC3CCCCC3)cc2)CC(C)(C)N1` [Compound I-147] the value was 20 to 80 µM. Regarding `CC1(C)CC(NC(=O)c2ccc(Oc3ccccc3)c(F)c2)CC(C)(C)N1` [Compound I-148], the IC50 was in the range of 5 to 20 µM. For the compound `CC1(C)CC(NC(=O)c2ccc(Oc3ccccc3Cc3ccccc3)cc2)CC(C)(C)N1` [Compound I-149], the IC50 was 5 to 20 µM.

In the case of `CC1(C)CC(NC(=O)c2ccc(Oc3ccccc3C3CCCCC3)cc2)CC(C)(C)N1` [Compound I-150], the IC50 is 5 to 20 µM. On to `CC1(C)CC(NC(=O)c2ccc(Oc3ccccc3C(C)(C)C)cc2)CC(C)(C)N1` [Compound I-151], for which the IC50 lay within 5 to 20 µM. In the case of `CC1(C)CC(NC(=O)c2ccc(Oc3ccccc3OCc3ccccc3)cc2)CC(C)(C)N1` [Compound I-152], the IC50 was less than 5 µM. To `CC1(C)CC(NC(=O)c2ccc(COc3cccc(-c4ccc(NC(=O)C5CC5)nc4)c3)cc2)CC(C)(C)N1` [Compound I-153] belongs 20 to 80 µM.

As to `CC1(C)CC(NC(=O)c2ccc(COc3cccc(-c4ccc(N)cc4)c3)cc2)CC(C)(C)N1` [Compound I-155], the IC50 was 20 to 80 µM.

As to `Cc1ccc(Oc2ccc(C(=O)NC3CC(C)(C)NC(C)(C)C3)cc2)c(C#N)c1` [Compound I-156], the IC50 was more than 80 µM. For the compound `CC1(C)CC(NC(=O)c2ccc(Oc3ccc(F)cc3C#N)cc2)CC(C)(C)N1` [Compound I-157], the IC50 fell in the range of 20 to 80 µM. `Cc1ccc(C#N)c(Oc2ccc(C(=O)NC3CC(C)(C)NC(C)(C)C3)cc2)c1` [Compound I-158]: the IC50 fell in the range of 20 to 80 µM. As for `CC1(C)CC(NC(=O)c2ccc(Oc3c(F)cccc3C#N)cc2)CC(C)(C)N1` [Compound I-159], the 50% inhibitory concentration (IC50) is 20 to 80 µM. On to `CC1(C)CC(NC(=O)c2ccc(C(=O)Nc3ccccc3)cc2)CC(C)(C)N1` [Compound I-160], for which the IC50 is more than 80 µM.

The IC50 is the concentration that inhibits the measured activity by half.
